Results: US10918610B2, “Compounds and methods of promoting myelination” (Case Western Reserve University, priority 2017, dated 2021)

Test system: human cortical spheroids
Assay: MYRF+ oligodendrocytes in human cortical spheroids
Format: cell-based
Conditions: 30 nM from days 61-71, assayed on day 94, versus untreated
Description: Human cortical spheroids were generated as described in Madhavan et al, (Nature Methods, 15:700-706, 2018). In brief, spheroids were left untreated, or treated with Cis-N-cyclohexyl-N-ethyl-3-(3-chloro-4-cyclohexylphenyl)prop-2-enylamine (30 nM) from days 61-71 and assayed […] on day 94 for MyRF+ oligodendrocytes (Rabbit anti-MyRF antibody was generously provided by M. Wegner and used at 1:1000).
For patterning of neurocortical spheroids, pluripotent stem cell colonies cultured on vitronectin (Gibco; A14700) were lifted with dispase (Gibco; 17105-041) at 37° C. for 10 min. Intact colonies were transferred to individual low-adherence V-bottom 96-well plates (S-Bio Prime; MS-9096VZ) in 200 μl of spheroid starter media with 10 μM ROCK inhibitor Y-27632 (Calbiochem; 688001), 10 μM dorsopmorphin (Sigma; P5499), and 10 μM SB-431542 (Sigma; S4317). […]
Spheroids for immunohistochemistry were initially fixed with 4% ice-cold paraformaldehyde for 45 min, washed three times in PBS, and equilibrated with 30% sucrose overnight. […] Two fields from the top and bottom of the spheroid and two fields from the edges of the central region of the spheroids were quantified. […]

Structure (SMILES): CCN(C/C=C\c1ccc(C2CCCCC2)c(Cl)c1)C1CCCCC1 [Cis-N-cyclohexyl-N-ethyl-3-(3-chloro-4-cyclohexylphenyl)prop-2-enylamine]
- MYRF+ oligodendrocytes in human cortical spheroids: selectively increase MYRF+ oligodendrocytes
